In US20090111824A1, “AMIDE LINKED HETEROAROMATIC DERIVATIVES AS MODULATORS OF MGLUR5” (AstraZeneca AB, priority 2007, published 2009):

What was measured:
[1] = Determination of brain to plasma ratio in rat; type: in vivo; details: brain and plasma, female Sprague Dawley rats, read-out: Brain/Plasma Ratio of compound in Rat
Procedure: Brain to plasma ratios are estimated in female Sprague Dawley rats. The compound is dissolved in water or another appropriate vehicle. For determination of brain to plasma ratio the compound is administrated as a subcutaneous, or an intravenous bolus injection, or an intravenous infusion, or an oral administration. At a predetermined time point after the administration a blood sample is taken with cardiac puncture. The rat is terminated by cutting the heart open, and the brain is immediately retained. The blood samples are collected in heparinized tubes and centrifuged within 30 minutes, in order to separate the plasma from the blood cells. The plasma is transferred to 96-well plates and stored at −20° C. until analysis. The brains are divided in half, and each half is placed in a pre-tarred tube and stored at −20° C. until analysis. Prior to the analysis, the brain samples are thawed and 3 mL/g brain tissue of distilled water is added to the tubes. The brain samples are sonicated in an ice bath until the samples are homogenized. Both brain and plasma samples are precipitated with acetonitrile. After centrifugation, the supernatant is diluted with 0.2% formic acid. Analysis is performed on a short reversed-phase HPLC column with rapid gradient elution and MSMS detection using a triple quadrupole instrument with electrospray ionisation and Selected Reaction Monitoring (SRM) acquisition. Liquid-liquid extraction may be used as an alternative sample clean-up. The samples are extracted, by shaking, to an organic solvent after addition of a suitable buffer. An aliquot of the organic layer is transferred to a new vial and evaporated to dryness under a stream of nitrogen. After reconstitution of the residuals the samples are ready for injection onto the HPLC column.

human mGluR5d = target: T1, human mGluR5d (Homo sapiens, UniProt P41594); assay: FLIPR assay, functional assessment of mGluR5 antagonism (intracellular calcium mobilization); type: cell-based; details: cells expressing human mGluR5d; read-out: FLIPR hmGluR5d
T1 construct: expressed in transfected cells; The cells are kept under Hygromycin B and Zeocin selection; The separate IP3 assay names GHEK cells
Description: Functional Assessment of mGluR5 Antagonism in Cell Lines Expressing mGluR5D
The properties of the compounds of the invention can be analyzed using standard assays for pharmacological activity. Examples of glutamate receptor assays are well known in the art as described in for example Aramori et al., Neuron 8:757 (1992), Tanabe et al., Neuron 8:169 (1992), Miller et al., J. Neuroscience 15: 6103 (1995), Balazs, et al., J. Neurochemistry 69:151 (1997). The methodology described in these publications is incorporated herein by reference. Conveniently, the compounds of the invention can be studied by means of an assay (FLIPR) that measures the mobilization of intracellular calcium, [Ca^2+]i in cells expressing mGluR5 or another assay (IP3) that measures inositol phosphate turnover.
Cells expressing human mGluR5d as described in WO97/05252 cultured in a mixture of high glucose DMEM with Glutamax (31966-021)(500 mL), 10% dialyzed fetal bovine serum (Hyclone #SH30079.03)(56 mL), 200 μg/mL Hygromycin B (Invitrogen 45-0430, 50 mg/mL)(2.2 mL), 200 μg/mL Zeocin (Invitrogen #R250-01; 100 mg/l mL)(1.1 mL) are seeded at a density of 100,000 cells per well on collagen coated clear bottom 96-well plates with black sides and cells were allowed to adhere over night before experiments. All assays are done in a buffer containing 146 mM NaCl, 5 mM KCl, 1 mM MgCl2, 1 mM CaCl2, 20 mM HEPES, 1 mg/mL glucose and 1 mg/mL BSA Fraction IV (pH 7.4). Cell cultures in the 96-well plates are loaded for 60 minutes in the above mentioned buffer containing 6 μM of the acetoxymethyl ester form of the fluorescent calcium indicator fluo-3 (Molecular Probes, Eugene, Oreg.) in 0.025% pluronic acid (a proprietary, non-ionic surfactant polyol—CAS Number 9003-11-6). […] The fluorescence signal is sampled 50 times at 1-second intervals followed by 3 samples at 5-second intervals immediately after each of the two additions. Responses are measured as the difference between the peak heights of the response to agonist, less the background fluorescence within the sample period. […]

T1 sequence (P41594 21-942 isoform P41594-3 limits assumed): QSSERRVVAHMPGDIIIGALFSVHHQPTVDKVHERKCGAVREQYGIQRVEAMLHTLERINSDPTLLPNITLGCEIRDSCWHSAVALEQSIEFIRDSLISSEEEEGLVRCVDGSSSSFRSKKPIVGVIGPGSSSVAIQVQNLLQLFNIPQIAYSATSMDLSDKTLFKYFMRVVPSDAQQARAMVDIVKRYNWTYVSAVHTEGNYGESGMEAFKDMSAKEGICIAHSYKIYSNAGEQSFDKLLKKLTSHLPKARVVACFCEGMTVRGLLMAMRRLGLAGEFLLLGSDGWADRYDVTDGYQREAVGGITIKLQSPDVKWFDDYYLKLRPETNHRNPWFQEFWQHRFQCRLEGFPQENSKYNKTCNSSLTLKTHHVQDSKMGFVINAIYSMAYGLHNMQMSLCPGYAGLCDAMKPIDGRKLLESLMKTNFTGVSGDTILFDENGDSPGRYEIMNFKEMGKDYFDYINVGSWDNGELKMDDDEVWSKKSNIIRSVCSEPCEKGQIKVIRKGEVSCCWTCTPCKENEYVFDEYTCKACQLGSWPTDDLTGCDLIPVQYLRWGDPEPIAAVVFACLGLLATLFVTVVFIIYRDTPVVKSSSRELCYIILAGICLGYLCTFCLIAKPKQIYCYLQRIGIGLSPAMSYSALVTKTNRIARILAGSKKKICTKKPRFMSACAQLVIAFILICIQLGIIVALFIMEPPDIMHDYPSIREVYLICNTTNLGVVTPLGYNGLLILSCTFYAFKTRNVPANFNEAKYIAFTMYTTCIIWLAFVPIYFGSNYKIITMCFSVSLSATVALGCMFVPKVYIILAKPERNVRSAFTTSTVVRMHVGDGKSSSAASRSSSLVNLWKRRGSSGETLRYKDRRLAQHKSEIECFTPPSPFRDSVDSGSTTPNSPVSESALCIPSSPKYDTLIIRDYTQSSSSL

Row | SMILES | Kp [1] | IC50 (human mGluR5d)
1 | CN(C(=O)c1cc(-c2cccc(Cl)c2)on1)c1nnc(-c2ccncc2)n1C [Example 1, 5-(3-Chlorophenyl)-N-methyl-N-(4-methyl-5-pyridin-4-yl-4H-1,2,4-triazol-3-yl)isoxazole-3-carboxamide] | 0.26 | 37 nM
2 | CN(C(=O)c1cc(-c2cccc(Cl)c2)on1)c1nnc(-c2cn[nH]c(=O)c2)n1C [Example 3, 5-(3-Chlorophenyl)-N-methyl-N-[4-methyl-5-(6-oxo-1,6-dihydropyridazin-4-yl)-4H-1,2,4-triazol-3-yl]isoxazole-3-carboxamide] | 0.19 | 62 nM
3 | Cc1cccc(-n2nnc(C(=O)N(C)c3nnc(-c4cn[nH]c(=O)c4)n3C)n2)c1 [Example 4, N-Methyl-N-[4-methyl-5-(6-oxo-1,6-dihydropyridazin-4-yl)-4H-1,2,4-triazol-3-yl]-2-(3-methylphenyl)-2H-tetrazole-5-carboxamide] | < 0.01 | 567 nM
